From patent publication US8708475B2, “Ultraviolet crosslinking inkjet ink, ink cartridge containing same, and image forming method and apparatus using same” (Ricoh Company, Ltd., priority 2010, dated 2014)
“Also recorded” adds a separate entry of the source. Like-named read-outs stand apart in the source and are kept apart here.

Assays:
[1] = described in the MSDS; cited from earlier work
mice [2] = settings: mouse, in vivo
[3] = in vivo; cited from earlier work
mice [4] = assay: LLNA method skin sensitization test (OECD Test Guideline 429), stimulation index from BrdU content of auricular lymph nodes; settings: mouse, in vivo
[5] = maximization method, Contact Dermatitis 8 223-235 (1982); cited from earlier work

CSc1ccc(C(=O)C(C)(C)N2CCOCC2)cc1 [2-Methyl-1-[4-(methylthio)phenyl]-2-morphorinopropane-1-one]
skin sensitization potential [1]: no skin sensitization potential; also recorded: pane-1-one (nega-

C=C(C)C(=O)OCC(C)(C)COC(=O)C(=C)C [Neopentyl glycol dimethacrylate]
SI value, bound stated for listed methacrylates (mice [2]; female, 3 days): less than 3

C=CC(=O)OCC(CC)(COC(=O)C=C)COC(=O)C=C [Trimethylolpropane triacrylate]
skin irritation potential (in words) [3]: high skin irritation potential

C=C(C)C(=O)OCC(CC)(COC(=O)C(=C)C)COC(=O)C(=C)C [Trimethylolpropane trimethacrylate]
skin irritation potential (in words) [3]: low skin irritation potential | skin sensitization potential (in words) (mice [4]): low skin sensitization potential

C=C(C)C(=O)OCCCCCC [n-Hexyl methacrylate]
SI value, bound stated for listed methacrylates (mice [2]): less than 3 | skin sensitization potential [5]: negative skin sensitization potential

C=C(C)C(=O)OCCCCC [n-Pentyl methacrylate]
SI value, bound stated for listed methacrylates (mice [2]): less than 3 | skin sensitization potential [5]: negative skin sensitization potential

C=C(C)C(=O)OC(C)(C)C [t-Butyl methacrylate]
SI value, bound stated for listed methacrylates (mice [2]): less than 3 | skin sensitization potential [5]: negative skin sensitization potential

Polyethylene glycol (400) dimethacrylate
SI value, bound stated for listed methacrylates (mice [2]): less than 3

Polyethylene glycol (600) dimethacrylate
SI value, bound stated for listed methacrylates (mice [2]): less than 3
